Experiments:
[1] = system: hepatobiliary transport of [^18F]FCA; test: Dynamic PET of [^18F]FCA in control, rifampicin and bosentan treated FVB-mice; conditions: pretreated FVB-mice; dynamic μPET
Method: Hepatobiliary transport of the tracer was evaluated in female wild-type FVB mice (5 weeks old, Charles River). The animals were housed in accordance with European Ethics Committee guidelines. The animal studies were approved by the Animal Experimental Ethical Committee of Ghent University (ECD 15/69). Food and water was provided ad libitum. Animals were fasted overnight before the PET-scan.
Mice were anesthetized with 1.5 v:v % isoflurane in 100% O2 for the duration of the experiment. An intravenous polyethylene line was placed in the lateral tail vein. The animals were placed in the small animal PET/CT-scanner (FLEX Triumph II small animal PET/CT-scanner; PET field of view: 7.5 cm axial; 1.3 mm spatial resolution; TriFoil Imaging) on a heated bed. A CT-scan was acquired for anatomical correlation.
The interaction of rifampicin (Sigma Aldrich) and bosentan (Activate Scientific) on in vivo [^18F]FCA transport was examined. FVB-mice were divided into 3 different groups (n = 3 per group): rifampicin, bosentan, and a control DMSO vehicle treated group). Both drugs were administered in doses of 100 mg/kg, intra-peritoneal in DMSO:PBS 70:30 v:v (rifampicin) or DMSO (bosentan) 1 hour before the start of the PET-scan. An additional dose (25 mg/kg for rifampicin in DMSO:PBS 40:60 v:v, 50 mg/kg for bosentan in DMSO) was co-injected intravenously with the tracer.
For each scan, 10 MBq of [^18F]FCA was administered intravenously and a 1 hour dynamic scan was started. Immediately after the dynamic scan, 18 MBq [^18F]FDG was injected intravenously. After 20 minutes, a 20 minutes static scan was taken.
PET-data were obtained in list-mode and were iteratively reconstructed (50 iterations) in frames of 15 seconds for the first 10 minutes, followed by 50 frames of 1 minute. ROI’s were drawn manually over liver, gallbladder and intestines using PMod software. A ROI was drawn in the left ventricle on the static [^18F]FDG scan to obtain an image-derived arterial blood input curve. The uptake of [^18F]FCA in arterial blood, liver, gallbladder and intestines was expressed as a % injected dose (% ID) and normalized for the weight of a 20 gram mouse. Time-activity curves (TAC’s) were generated using these values.
AUC, maximum % ID, and time to peak values were determined for the TAC’s with Graphpad Prism v3.00. Differences between 2 groups were determined with the non-parametric Mann-Whitney U test. P-values ≤ 0.05 were considered significant.

NTCP = target: T1, NTCP (Homo sapiens, UniProt Q14973); test: In vitro uptake assay with [^3H]TC in CHO-NTCP cells
T1 sequence (Q14973 1-349): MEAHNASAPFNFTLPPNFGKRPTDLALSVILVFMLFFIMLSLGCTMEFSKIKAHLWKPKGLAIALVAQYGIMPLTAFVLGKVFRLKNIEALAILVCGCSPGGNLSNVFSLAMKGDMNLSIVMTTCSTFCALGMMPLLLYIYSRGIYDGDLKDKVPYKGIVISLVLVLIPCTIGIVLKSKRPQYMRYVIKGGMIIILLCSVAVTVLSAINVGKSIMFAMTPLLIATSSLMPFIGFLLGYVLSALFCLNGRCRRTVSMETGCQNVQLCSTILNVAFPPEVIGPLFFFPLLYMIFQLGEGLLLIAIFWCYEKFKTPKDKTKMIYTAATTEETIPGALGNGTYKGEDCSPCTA
Method: (§1) Transport of 3β-fluorocholic acid by NTCP, OATP1B1 and OATP1B3 was assessed using stable transfected cell lines. Chinese hamster ovary (CHO) cells, Human Embryonic Kidney (HEK), HEK293-OATP1B3 cells were purchased from Solvo Biotechnologies; CHO-NTCP and HEK293-OATP1B1 cells were a kind gift from the same company. CHO cells were cultured in Dulbecco’s modified Eagle’s medium (DMEM)/F12 with 10% fetal calf serum, 0.3 mM L-proline, 2 mM glutamine and penicilline/streptomycine (50 U/mL). HEK cells expressing OATP1B1, OATP1B3 and control cell lines were cultured in DMEM glutamax (high glucose/pyruvate) with 10% fetal calf serum, MEM non-essential amino acid supplement and penicilline/streptomycine (50 U/mL). All cell lines were cultured in a 37°C 5% CO2 environment.
(§2) Transport of FCA by the NTCP, OATP1B1 and OATP1B3 transporters was assessed by inhibition of the tritium labeled model substrates uptake.
Cells were seeded in 24-well plates at 400,000 cells per well. After 24 hours, the culture medium was removed and cells were washed twice with 1 mL 10 mM HEPES-Hank’s Balanced Salt Solution (HBSS; with Ca and Mg; 37°C pH 7.4) washing buffer. […] Of the dosing solution, 250 μL was added to the washed cells and incubation took place at 37°C for 15 minutes. The plates were cooled on ice and 1 mL 1% BSA ice-cold HBSS (with Ca and Mg) was added. Cells were washed twice with 2 mL ice-cold HBSS (with Ca and Mg) and were finally lysed with 250 μL 0.1 M NaOH. The plates were shaken for 15 minutes at 37°C. Of the lysate, 150 μL was used for liquid scintillation counting (TriCarb 2900 TR; Perkin Elmer) and 25 μL was subjected to a BCA assay (ThermoFisher Scientific) to determine protein content. Data points were collected in triplicate. IC50-values were calculated with Graphpad Prism v3.00 (Graphpad software).

MRP2 = MRP2 (Homo sapiens, UniProt Q92887); test: In vitro efflux competition assay with [^3H]EbG in MRP2 membrane vesicles
Method: (§3) The assay was performed in 96-well plates. […] The final volume in each well was 30 μL. The plates were incubated for 10 minutes at 37°C and uptake was halted by the addition of 150 μL ice-cold buffer solution. The contents of each well were transferred to a glass fiber filter plate (Multiscreen HTS plates; Merck Millipore) and washed 3 times with 200 μL of ice-cold buffer solution. Vesicles were lysed by incubation with 100 μL 0.1 M NaOH for 10 minutes at room temperature. An 80 μL aliquot of this solution was used for liquid scintillation counting. Data points were collected in triplicate. IC50-values were calculated with Graphpad Prism v3.00.

OATP1B3 = target: T2, OATP1B3 (Homo sapiens, UniProt Q9NPD5); test: In vitro uptake assay with [^3H]EbG in HEK-OATP1B3 cells
T2 sequence (Q9NPD5 1-702): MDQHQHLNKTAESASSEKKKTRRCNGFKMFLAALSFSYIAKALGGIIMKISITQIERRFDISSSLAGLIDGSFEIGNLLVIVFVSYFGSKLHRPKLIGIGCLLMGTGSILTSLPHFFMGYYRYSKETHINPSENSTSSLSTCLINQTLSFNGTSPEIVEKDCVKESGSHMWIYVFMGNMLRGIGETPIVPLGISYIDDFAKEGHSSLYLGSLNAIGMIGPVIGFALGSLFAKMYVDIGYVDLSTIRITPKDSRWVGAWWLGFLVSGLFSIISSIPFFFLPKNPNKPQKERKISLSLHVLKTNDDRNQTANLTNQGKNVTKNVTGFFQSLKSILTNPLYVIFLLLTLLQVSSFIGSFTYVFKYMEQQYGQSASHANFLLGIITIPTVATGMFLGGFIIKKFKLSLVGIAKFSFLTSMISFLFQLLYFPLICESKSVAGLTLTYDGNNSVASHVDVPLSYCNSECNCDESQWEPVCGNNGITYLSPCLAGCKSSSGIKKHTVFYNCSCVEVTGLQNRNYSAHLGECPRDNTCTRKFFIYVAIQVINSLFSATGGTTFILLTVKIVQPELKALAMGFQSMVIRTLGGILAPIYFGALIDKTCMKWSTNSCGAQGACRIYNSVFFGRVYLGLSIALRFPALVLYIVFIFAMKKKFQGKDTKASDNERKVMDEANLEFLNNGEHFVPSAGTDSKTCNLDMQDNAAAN
Method: as §1, §2
(§4) Cells were seeded in 24-well plates at 400,000 cells per well. […] The plates were cooled on ice and 1 mL 1% BSA ice-cold HBSS (with Ca and Mg) was added. Cells were washed twice with 2 mL ice-cold HBSS (with Ca and Mg) and were finally lysed with 250 μL 0.1 M NaOH. […] Of the lysate, 150 μL was used for liquid scintillation counting (TriCarb 2900 TR; Perkin Elmer) and 25 μL was subjected to a BCA assay (ThermoFisher Scientific) to determine protein content. Data points were collected in triplicate. IC50-values were calculated with Graphpad Prism v3.00 (Graphpad software).

OATP1B1 = target: T3, OATP1B1 (Homo sapiens, UniProt Q9Y6L6); test: In vitro uptake assay with [^3H]EbG in HEK-OATP1B1 cells
T3 sequence (Q9Y6L6 1-691): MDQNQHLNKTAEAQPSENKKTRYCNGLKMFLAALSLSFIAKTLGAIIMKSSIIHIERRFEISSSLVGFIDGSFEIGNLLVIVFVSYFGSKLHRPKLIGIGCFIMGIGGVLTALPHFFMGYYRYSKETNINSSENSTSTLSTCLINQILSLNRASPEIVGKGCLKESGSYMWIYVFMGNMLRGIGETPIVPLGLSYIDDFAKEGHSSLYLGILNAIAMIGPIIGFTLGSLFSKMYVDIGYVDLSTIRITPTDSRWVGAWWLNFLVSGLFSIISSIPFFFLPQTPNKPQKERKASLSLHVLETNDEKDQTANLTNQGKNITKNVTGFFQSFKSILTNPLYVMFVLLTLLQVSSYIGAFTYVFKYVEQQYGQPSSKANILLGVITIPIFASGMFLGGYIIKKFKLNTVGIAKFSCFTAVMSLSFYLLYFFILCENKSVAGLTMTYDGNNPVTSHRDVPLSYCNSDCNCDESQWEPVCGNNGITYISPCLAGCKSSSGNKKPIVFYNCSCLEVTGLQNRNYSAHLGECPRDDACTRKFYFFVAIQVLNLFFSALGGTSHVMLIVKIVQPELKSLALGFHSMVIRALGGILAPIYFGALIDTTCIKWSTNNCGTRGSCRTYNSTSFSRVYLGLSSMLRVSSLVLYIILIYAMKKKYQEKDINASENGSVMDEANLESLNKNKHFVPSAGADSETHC
Method: as §1, §2, §4

BSEP = BSEP (Homo sapiens, UniProt O95342); test: In vitro efflux competition assay with [^3H]TC in BSEP membrane vesicles
Method: as §3

[2] = cited from earlier work
[3] = set-up: method as in PMID 27513813; conditions: cited from earlier work
[4] = 15 minutes of incubation without added FCA

MRP2, sequence (Q92887 whole entry): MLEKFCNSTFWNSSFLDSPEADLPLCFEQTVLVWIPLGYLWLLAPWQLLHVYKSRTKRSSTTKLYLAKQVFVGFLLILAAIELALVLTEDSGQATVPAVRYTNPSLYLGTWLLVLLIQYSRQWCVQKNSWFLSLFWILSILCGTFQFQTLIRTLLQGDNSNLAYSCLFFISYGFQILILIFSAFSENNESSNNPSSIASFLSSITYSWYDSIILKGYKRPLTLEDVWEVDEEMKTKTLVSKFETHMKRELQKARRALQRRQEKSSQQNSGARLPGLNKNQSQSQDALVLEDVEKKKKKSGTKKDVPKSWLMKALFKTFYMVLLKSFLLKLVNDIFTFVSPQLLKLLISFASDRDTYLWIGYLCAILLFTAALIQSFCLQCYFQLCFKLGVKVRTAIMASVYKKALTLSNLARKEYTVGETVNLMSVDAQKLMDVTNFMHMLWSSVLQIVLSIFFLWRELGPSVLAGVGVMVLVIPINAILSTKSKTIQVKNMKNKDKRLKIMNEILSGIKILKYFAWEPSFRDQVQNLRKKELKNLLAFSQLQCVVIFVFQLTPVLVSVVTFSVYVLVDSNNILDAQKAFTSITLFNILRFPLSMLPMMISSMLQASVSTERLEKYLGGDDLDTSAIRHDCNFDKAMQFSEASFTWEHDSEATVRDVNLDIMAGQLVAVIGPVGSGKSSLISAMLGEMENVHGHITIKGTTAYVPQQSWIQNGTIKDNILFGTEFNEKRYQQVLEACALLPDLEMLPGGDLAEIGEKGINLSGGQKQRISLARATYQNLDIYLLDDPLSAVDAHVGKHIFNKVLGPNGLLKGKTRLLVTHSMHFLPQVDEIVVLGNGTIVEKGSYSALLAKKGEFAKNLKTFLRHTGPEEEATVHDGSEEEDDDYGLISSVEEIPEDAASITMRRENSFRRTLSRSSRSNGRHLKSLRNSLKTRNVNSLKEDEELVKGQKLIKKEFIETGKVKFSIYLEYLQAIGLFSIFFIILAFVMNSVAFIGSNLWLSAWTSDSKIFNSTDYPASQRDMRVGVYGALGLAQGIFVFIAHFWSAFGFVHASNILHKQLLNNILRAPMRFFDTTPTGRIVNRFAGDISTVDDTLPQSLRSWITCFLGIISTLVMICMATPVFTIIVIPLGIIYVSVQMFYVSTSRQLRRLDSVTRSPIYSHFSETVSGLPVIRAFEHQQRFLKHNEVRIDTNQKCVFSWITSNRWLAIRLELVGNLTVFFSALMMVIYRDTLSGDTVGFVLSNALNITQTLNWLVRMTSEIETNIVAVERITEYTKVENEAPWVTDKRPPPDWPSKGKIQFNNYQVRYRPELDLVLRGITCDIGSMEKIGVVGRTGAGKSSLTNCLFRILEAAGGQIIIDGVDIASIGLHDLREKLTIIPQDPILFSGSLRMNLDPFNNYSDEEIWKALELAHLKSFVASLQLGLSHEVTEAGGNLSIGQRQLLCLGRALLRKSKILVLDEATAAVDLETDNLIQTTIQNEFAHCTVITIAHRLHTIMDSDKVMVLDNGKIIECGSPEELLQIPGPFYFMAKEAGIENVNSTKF
BSEP, sequence (O95342 whole entry): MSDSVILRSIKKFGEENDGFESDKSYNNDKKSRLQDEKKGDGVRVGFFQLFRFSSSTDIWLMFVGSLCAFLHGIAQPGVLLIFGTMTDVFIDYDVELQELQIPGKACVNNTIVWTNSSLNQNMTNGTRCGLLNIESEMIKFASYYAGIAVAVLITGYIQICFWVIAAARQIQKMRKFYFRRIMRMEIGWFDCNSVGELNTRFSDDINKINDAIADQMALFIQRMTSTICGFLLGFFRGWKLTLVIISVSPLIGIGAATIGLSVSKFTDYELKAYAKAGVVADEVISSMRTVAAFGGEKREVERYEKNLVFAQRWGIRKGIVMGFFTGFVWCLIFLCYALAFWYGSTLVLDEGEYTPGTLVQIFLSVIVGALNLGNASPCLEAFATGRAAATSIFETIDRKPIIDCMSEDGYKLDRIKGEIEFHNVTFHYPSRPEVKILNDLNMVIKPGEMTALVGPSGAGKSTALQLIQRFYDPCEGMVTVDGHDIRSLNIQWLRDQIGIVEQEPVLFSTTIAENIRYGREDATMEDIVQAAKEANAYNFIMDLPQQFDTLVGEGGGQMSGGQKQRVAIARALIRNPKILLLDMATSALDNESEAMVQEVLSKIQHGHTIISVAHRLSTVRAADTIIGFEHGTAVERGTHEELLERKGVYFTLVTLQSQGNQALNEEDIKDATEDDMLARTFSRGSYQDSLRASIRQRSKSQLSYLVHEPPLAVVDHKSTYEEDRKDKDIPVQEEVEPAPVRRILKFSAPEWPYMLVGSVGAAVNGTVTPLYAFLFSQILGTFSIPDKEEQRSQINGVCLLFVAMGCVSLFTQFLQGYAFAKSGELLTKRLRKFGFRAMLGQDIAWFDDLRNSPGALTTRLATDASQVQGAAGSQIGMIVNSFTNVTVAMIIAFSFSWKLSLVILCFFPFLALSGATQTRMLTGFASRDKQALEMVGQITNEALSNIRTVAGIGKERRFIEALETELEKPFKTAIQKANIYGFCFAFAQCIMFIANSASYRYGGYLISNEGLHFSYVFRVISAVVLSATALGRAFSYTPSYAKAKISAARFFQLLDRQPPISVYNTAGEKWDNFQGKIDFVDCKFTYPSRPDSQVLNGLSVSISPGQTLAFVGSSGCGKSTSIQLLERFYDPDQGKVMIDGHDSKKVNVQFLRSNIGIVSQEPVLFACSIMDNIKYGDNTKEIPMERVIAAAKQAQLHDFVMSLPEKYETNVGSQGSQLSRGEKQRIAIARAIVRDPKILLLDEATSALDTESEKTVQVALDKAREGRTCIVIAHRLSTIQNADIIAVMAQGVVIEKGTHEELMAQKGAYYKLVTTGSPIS

With `COc1ccccc1Oc1c(NS(=O)(=O)c2ccc(C(C)(C)C)cc2)nc(-c2ncccn2)nc1OCCO` [Bosentan, bosentan, reference compound] the “effect on hepatobiliary transport of [^18F]FCA” value [1] was “significantly inhibited”.
`C[C@H](CCC(=O)O)[C@H]1CC[C@H]2[C@@H]3[C@H](O)C[C@@H]4C[C@@H](F)CC[C@]4(C)[C@H]3C[C@H](O)[C@]12C` [FCA, 3β-Fluoro-7α,12α-Dihydroxy-5β-Cholanic acid] showed an IC50 (NTCP) of 6.6 ± 0.8 µM, an IC50 (MRP2) of 577 ± 300 µM and an IC50 (OATP1B3) of 25.2 ± 12.7 µM. It also gave an IC50 (OATP1B1) of 10.5 ± 1.1 µM and an IC50 (BSEP) of 253 ± 76 µM.
In the case of `CO[C@H]1/C=C/O[C@@]2(C)Oc3c(C)c(O)c4c(O)c(c(/C=N/N5CCN(C)CC5)c(O)c4c3C2=O)NC(=O)/C(C)=C\C=C\[C@H](C)[C@H](O)[C@@H](C)[C@@H](O)[C@@H](C)[C@H](OC(C)=O)[C@@H]1C` [Rifampicin, rifampicin], the “effect on ^99mTc mebrofenin canalicular efflux on the SPECT-scan” value ([2]; not told) is given as “complete block of canalicular efflux”.
For `C[C@]12CC[C@@H]3c4ccc(O)cc4CC[C@H]3[C@@H]1CC[C@@H]2O[C@@H]1O[C@H](C(=O)O)[C@@H](O)[C@H](O)[C@H]1O` [[^3H]EbG, [^3H]estradiol-17β-glucuronide], the “uptake in MRP2 vesicles” value (MRP2; 10 minutes of incubation) was 18.5 ± 3.8 pmol/mg protein, the “uptake in HEK-OATP1B3” value (OATP1B3; [4]) was 8.6 ± 1.3 pmol/mg protein and the “uptake in HEK-OATP1B3 (kinetic profile)” value (OATP1B3; S2 file, 1 µM, 15 minutes) was 19.0 pmol/mg protein. The “uptake in HEK-OATP1B3 versus control” value (OATP1B3; S2 file, 15 minutes) was 13 times, the “uptake in HEK-OATP1B1” value (OATP1B1; [4]) was 84.0 ± 7.7 pmol/mg protein and the “uptake in HEK-OATP1B1 (kinetic profile)” value (OATP1B1; S2 file, 1 µM, 15 minutes) was 163.9 pmol/mg protein. For the same compound, the “uptake in HEK-OATP1B1 versus control” value (OATP1B1; S2 file, 15 minutes) was 115 times.
For `C[C@H](CCC(=O)NCCS(=O)(=O)O)[C@H]1CC[C@H]2[C@@H]3[C@H](O)C[C@@H]4C[C@H](O)CC[C@]4(C)[C@H]3C[C@H](O)[C@]12C` [[^3H]TC, [^3H]taurocholate], the “uptake in CHO-NTCP cells” value (NTCP; [4]) was 95.2 ± 6.0 pmol/mg protein, the “uptake in CHO-NTCP cells (kinetic profile)” value (NTCP; S2 file, 1 µM, 15 minutes of incubation) was 135.5 pmol/mg protein and the “uptake in CHO-NTCP cells versus control” value (NTCP; S2 file, 15 minutes) was 101 fold.
In the case of `Cc1cc(C)c(NC(=O)CN(CC(=O)[O-])CC(=O)[O-])c(C)c1Br.Cc1cc(C)c(NC(=O)CN(CC(=O)[O-])CC(=O)[O-])c(C)c1Br.[99Tc+4]` [^99mTc-mebrofenin, ^99mTc Mebrofenin], the “% ID in gallbladder and intestines” value ([2]; FVB-mice) is listed as 78.1 % ID, the “maximum % ID liver” value ([2]; FVB-mice) is listed as 51.8 % ID and the “time to reach maximum % ID in liver” value ([2]; FVB-mice) is listed as 2.2 min.
For [^99mTc]-DTPA-CA [^99mTc CA], the “max % ID liver” value [3] is given as 25.7 % ID, the “maximal % ID in gallbladder and intestines” value [3] is given as 47.8 % ID and the “time to reach max % ID in liver” value [3] is given as 12.0 min.
For [^99mTc]-DTPA-CDCA [^99mTc CDCA], the “max % ID liver” value [3] is given as 37.3 % ID, the “maximal % ID in gallbladder and intestines” value [3] is given as 62.2 % ID and the “time to reach max % ID in liver” value [3] is given as 12.7 min.
